Results: paper PMC7108740, “Exploring the molecular structures that confer ligand selectivity for galanin type II and III receptors” (PLoS ONE, 2020)
Residue numbers refer to the chain shown, from its start. Ends that are not written are not given here.

Columns and labels:
Type in all cases: cell-based
[1] = target: T1, GALR3 single mutant S^266T (Homo sapiens, UniProt O60755, S266T); experiment: SRE-luc luciferase assay, GALR3 S266T; conditions: GALR3 S^266T; SRE-luc in HEK293 Gqi cells, ligand 6 h; mean ± S.E.; SEM
T1 construct: expressed in transfected cells; host or cells: HEK293 cells stably expressing Gqi
T1 sequence (O60755 whole entry S266T): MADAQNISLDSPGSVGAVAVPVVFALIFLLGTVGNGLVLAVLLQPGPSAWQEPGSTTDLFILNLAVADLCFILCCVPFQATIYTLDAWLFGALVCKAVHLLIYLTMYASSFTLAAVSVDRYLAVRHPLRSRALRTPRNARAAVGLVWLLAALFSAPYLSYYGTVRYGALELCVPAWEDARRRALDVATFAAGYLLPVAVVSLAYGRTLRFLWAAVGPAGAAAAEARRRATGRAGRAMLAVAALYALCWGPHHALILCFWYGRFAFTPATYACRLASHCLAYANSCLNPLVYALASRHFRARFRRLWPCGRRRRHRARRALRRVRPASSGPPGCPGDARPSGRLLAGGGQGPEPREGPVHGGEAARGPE
Description: (§1) For domain swapping between GALR2 and GALR3, individual cDNA fragments of interest were amplified by polymerase chain reaction (PCR) with Pfu polymerase (ELPIS Biotech, Daejeon, Korea) and two specific primers, one corresponding to the 5' or 3' end of the GALR2 or GALR3 cDNA and the other to the region of overlap between the two receptors. The two resulting fragments, one from GALR2 and the other from GALR3, were subjected to a second round of PCR to generate the chimeric cDNAs. To construct single, double-, triple-, pentuple-, hextuple-, and septuple-mutant receptors, amino acids of GALR3 were substituted for the amino acids at the corresponding positions in GALR2 using PCR-based site-directed mutagenesis. All of the chimeric constructs were cloned into the pcDNA3 expression vector at HindⅢ and XbaⅠ sites. The DNA sequences of the chimeras were verified by automatic sequencing. […] The luciferase activity in 50 μl cell extract was determined using a luciferase assay system according to the standard protocol for the Synergy 2 Multi-Mode Microplate Reader (BioTek, Winooski, VT, USA). […] The concentrations of agonists that induced half-maximal stimulation (EC50) were calculated using the GraphPad PRISM5 software (GraphPad software, Inc., San Diego, CA). […]

[2] = target: T2, GALR3 single mutant A^264P (Homo sapiens, UniProt O60755, A264P); experiment: SRE-luc luciferase assay, GALR3 A264P; conditions: GALR3 A^264P; SRE-luc in HEK293 Gqi cells, ligand 6 h; mean ± S.E.; SEM
T2 construct: expressed in transfected cells; host or cells: HEK293 cells stably expressing Gqi
T2 sequence (O60755 whole entry A264P): as the sequence (O60755 whole entry S266T) above, with A264P, T266S counted along it
Description: as §1

[3] = target: T3, GALR3 single mutant F^265P (Homo sapiens, UniProt O60755); experiment: SRE-luc luciferase assay, GALR3 F265P; conditions: GALR3 F^265P; SRE-luc in HEK293 Gqi cells, ligand 6 h; mean ± S.E.; SEM
T3 construct: expressed in transfected cells; host or cells: HEK293 cells stably expressing Gqi
T3 sequence (O60755 whole entry F265L): as the sequence (O60755 whole entry S266T) above, with F265L, T266S counted along it
Description: as §1

GALR3 = target: T4, GALR3 (Homo sapiens, UniProt O60755); experiment: SRE-luc luciferase assay, WT GALR3; design: host or cells: HEK293 cells stably expressing Gqi; conditions: SRE-luc in HEK293 Gqi cells, ligand 6 h, mean ± SE, at least three independent experiments, SEM
T4 sequence (O60755 1-368): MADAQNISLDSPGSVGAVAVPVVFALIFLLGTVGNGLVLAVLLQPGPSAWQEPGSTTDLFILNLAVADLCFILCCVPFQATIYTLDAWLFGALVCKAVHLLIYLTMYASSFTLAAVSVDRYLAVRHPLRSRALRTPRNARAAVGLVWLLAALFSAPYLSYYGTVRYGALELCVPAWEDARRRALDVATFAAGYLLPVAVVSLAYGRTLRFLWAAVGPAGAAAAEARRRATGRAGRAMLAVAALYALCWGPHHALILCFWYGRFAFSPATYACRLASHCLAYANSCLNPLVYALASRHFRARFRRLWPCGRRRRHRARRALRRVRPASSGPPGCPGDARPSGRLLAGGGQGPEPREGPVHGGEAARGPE
Description: (§2) The pcDNA3.1 vector was purchased from Invitrogen (San Diego, CA, USA). The serum response element (SRE)-luciferase (SRE-luc) vector containing a single copy of the SRE (CCATATTAGG) conjugated with luciferase was purchased from Stratagene (La Jolla, CA, USA). The cDNAs for human GALR1, GALR2, and GALR3 were obtained from BRN SCIENCE, Inc. The cDNAs were inserted into the EcoRⅠ and XhoⅠ sites of pcDNA3.1.
(§3) HEK293 cells stably expressing the Gqi construct, which allows induction of Gq-dependent signaling pathways upon activation of a Gi-coupled receptor [14, 30], were maintained in Dulbecco's Modified Eagle's Medium (DMEM) in the presence of 10% fetal bovine serum and 1% penicillin and streptomycin. For all transfections, 200 ng DNA (100 ng receptor and 100 ng SRE-luc) mixed with lipofectamine 2000 was applied to 60–80% confluent cells on a multi-well plate according to the manufacturer's instructions (Invitrogen, Carlsbad, CA).
(§4) For luciferase assays, HEK293 Gqi cells were seeded on 48-well plates at a density of 2.5 × 10^4 cells/well one day before transfection. A mixture including 100 ng SRE-luc reporter construct, 100 ng expression plasmid, and lipofectamine 2000 reagent in diluted Opti-MEM (Gibco) was incubated at room temperature for 20 min and then added into each well according to the manufacturer's instructions (Invitrogen, CA, USA). Before exposure to the ligands, the cells were maintained in serum-free DMEM for 16–18 h. Approximately 48 h after transfection, the cells were treated with ligand for 6 h. The cells were then lysed by the addition of 100 μl lysis buffer. The luciferase activity in 50 μl cell extract was determined using a luciferase assay system according to the standard protocol for the Synergy 2 Multi-Mode Microplate Reader (BioTek, Winooski, VT, USA).
(§5) Data analysis was performed by non-linear regression with a sigmoidal dose-response curve. The concentrations of agonists that induced half-maximal stimulation (EC50) were calculated using the GraphPad PRISM5 software (GraphPad software, Inc., San Diego, CA). All data are presented as the mean ± standard error (SE) of at least three independent experiments.

[4] = target: T5, GALR3 single mutant C^272L (Homo sapiens, UniProt O60755, C272L); experiment: SRE-luc luciferase assay, GALR3 C272L; conditions: GALR3 C^272L; SRE-luc in HEK293 Gqi cells, ligand 6 h; mean ± S.E.; SEM
T5 construct: expressed in transfected cells; host or cells: HEK293 cells stably expressing Gqi
T5 sequence (O60755 whole entry C272L): as the sequence (O60755 whole entry S266T) above, with T266S, C272L counted along it
Description: as §1

human GALR2 = target: T6, human GALR2 (Homo sapiens, UniProt O43603); experiment: SRE-luc luciferase assay, WT GALR2; conditions: SRE-luc in HEK293 Gqi cells, ligand 6 h, mean ± SE, at least three independent experiments, SEM
T6 construct: host or cells: HEK293 cells stably expressing Gqi
T6 sequence (O43603 1-387): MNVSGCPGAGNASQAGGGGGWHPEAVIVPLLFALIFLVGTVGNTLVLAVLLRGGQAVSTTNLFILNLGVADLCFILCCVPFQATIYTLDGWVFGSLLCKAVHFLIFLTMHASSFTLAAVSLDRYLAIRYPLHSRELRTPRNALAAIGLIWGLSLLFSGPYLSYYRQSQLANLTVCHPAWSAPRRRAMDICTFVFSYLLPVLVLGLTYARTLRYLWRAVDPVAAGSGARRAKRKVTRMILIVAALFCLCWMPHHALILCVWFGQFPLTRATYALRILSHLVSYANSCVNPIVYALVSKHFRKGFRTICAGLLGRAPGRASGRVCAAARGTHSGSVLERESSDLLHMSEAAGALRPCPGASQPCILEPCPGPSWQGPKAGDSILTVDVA
Description: as §2, §3, §4, §5

[5] = target: T7, GALR3 single mutant P^267R (Homo sapiens, UniProt O60755, P267R); experiment: SRE-luc luciferase assay, GALR3 P267R; conditions: GALR3 P^267R; SRE-luc in HEK293 Gqi cells, ligand 6 h; mean ± S.E.; SEM
T7 construct: expressed in transfected cells; host or cells: HEK293 cells stably expressing Gqi
T7 sequence (O60755 whole entry P267R): as the sequence (O60755 whole entry S266T) above, with T266S, P267R counted along it
Description: as §1

GALR3 septuple [6] = target: T8, GALR3 septuple (Homo sapiens, UniProt O60755, A190V/A191F/C272L/G192S/L100F/Y103F/Y107H); experiment: cAMP assay (inhibition of forskolin-induced cAMP), GALR3 septuple mutant; conditions: Glosensor-22F cAMP HEK293 cells, agonist 10 min then forskolin 10 μM, mean ± SE, SEM
T8 construct: expressed in transfected cells; host or cells: HEK293 cells stably expressing pGlosensor-22F cAMP plasmid
T8 sequence (O60755 1-368 L100F/Y103F/Y107H/A190V/A191F/G192S/C272L): T4 sequence (O60755 1-368) with L100F, Y103F, Y107H, A190V, A191F, G192S, C272L
Procedure: SPX-induced or Qu-SPX-induced cyclic adenosine monophosphate (cAMP) mobilization was measured in HEK293 cells stably expressing the pGlosensor^TM-22F cAMP plasmid (Promega Corp., Madison, WI, USA). The Glosensor-22F cAMP HEK293 cells were seeded on 96-well plates at a density of 2.0 × 10^4 cells/well 24 h before transfection. A mixture including 100 ng expression plasmid and lipofectamine 2000 reagent in diluted Opti-MEM (Gibco) was incubated at room temperature for 20 min. The mixtures were added into each well according to the manufacturer's instructions (Invitrogen, CA, USA). After 48 h, Glosensor cAMP substrates were added to the transfected cells in CO2-independent media. After 2 h, the cells were incubated with a range of agonist concentrations or vehicle for 10 min and then exposed to foskolin (10 μM). Luminescence was measured for up to 30 min using a Microplate Reader (BioTek, Winooski, VT, USA).
as §5, with “experiments. […]” for “experiments.”

GALR3 septuple [7] = target: T8, GALR3 septuple; experiment: SRE-luc luciferase assay, GALR3 septuple mutant; conditions: SRE-luc in HEK293 Gqi cells, ligand 6 h, mean ± SE, SEM
Description: For domain swapping between GALR2 and GALR3, individual cDNA fragments of interest were amplified by polymerase chain reaction (PCR) with Pfu polymerase (ELPIS Biotech, Daejeon, Korea) and two specific primers, one corresponding to the 5' or 3' end of the GALR2 or GALR3 cDNA and the other to the region of overlap between the two receptors. The two resulting fragments, one from GALR2 and the other from GALR3, were subjected to a second round of PCR to generate the chimeric cDNAs. To construct single, double-, triple-, pentuple-, hextuple-, and septuple-mutant receptors, amino acids of GALR3 were substituted for the amino acids at the corresponding positions in GALR2 using PCR-based site-directed mutagenesis. […]
For luciferase assays, HEK293 Gqi cells were seeded on 48-well plates at a density of 2.5 × 10^4 cells/well one day before transfection. […] The luciferase activity in 50 μl cell extract was determined using a luciferase assay system according to the standard protocol for the Synergy 2 Multi-Mode Microplate Reader (BioTek, Winooski, VT, USA).
Data analysis was performed by non-linear regression with a sigmoidal dose-response curve. The concentrations of agonists that induced half-maximal stimulation (EC50) were calculated using the GraphPad PRISM5 software (GraphPad software, Inc., San Diego, CA). […]

| Substance | EC50 [1] [nM] | EC50 [2] [nM] | EC50 [3] [nM] | EC50 (GALR3) [nM] | EC50 [4] [nM] | EC50 (human GALR2) [nM] | EC50 [5] [nM] | EC50 (GALR3 septuple [6]) [nM] | EC50 (GALR3 septuple [7]) [nM] |
| --- | --- | --- | --- | --- | --- | --- | --- | --- | --- |
| NWTPQAMLYLFGAQ-NH2 [F^11-SPX] | 200 ± 29.7 | 589 ± 200 | 457 ± 118 | 490 ± 118 | 66.1 ± 22.4 | 47.9 ± 11.5 | 562 ± 173 |  |  |
| NWTPNAALYLFGPQ-NH2 [Qu-SPX] |  |  |  |  |  | 87.1 ± 19.5 |  | 794 ± 358 | 1100 ± 163 |
